Legend:
Type in all cases: biochemical
human Lck enzyme = target: T1, human Lck enzyme (Homo sapiens, UniProt P06239); experiment: Lck enzyme inhibitory activity (time-resolved fluorometry, biotinylated peptide phosphorylation); details: biotinylated peptide phosphorylation, read-out: LCK_IC50
T1 construct: purchased Carna Biosciences, Inc. 08-170
Outline: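 Readout pairs a europium cryptate-labelled anti-phosphotyrosine antibody with XL665-streptavidin, measured by time-resolved fluorescence. IC50 derived from percent inhibition against untreated controls.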

human Src enzyme = target: T2, human Src enzyme (Homo sapiens, UniProt P12931); experiment: Src enzyme inhibitory activity (time-resolved fluorometry, biotinylated peptide phosphorylation); details: biotinylated peptide phosphorylation, read-out: SRC_IC50
T2 construct: purchased Carna Biosciences, Inc. 08-173
Outline: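 Compounds were tested for blocking tyrosine phosphorylation of a biotinylated peptide substrate by recombinant human Src. Phosphorylated product was quantified by time-resolved fluorometry using europium cryptate and XL665 conjugates, and IC50 was calculated against the compound-free control.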

human Yes1 enzyme = target: T3, human Yes1 enzyme (Homo sapiens, UniProt P07947); experiment: Yes1 enzyme inhibitory activity (time-resolved fluorometry, biotinylated peptide phosphorylation); details: biotinylated peptide phosphorylation, read-out: YES_IC50
T3 construct: made in house
Outline: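 Inhibition was expressed against a compound-free control to give IC50, using TR-FRET read-out (Eu-cryptate anti-pTyr antibody, streptavidin-XL665).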

T2 sequence (P12931 whole entry): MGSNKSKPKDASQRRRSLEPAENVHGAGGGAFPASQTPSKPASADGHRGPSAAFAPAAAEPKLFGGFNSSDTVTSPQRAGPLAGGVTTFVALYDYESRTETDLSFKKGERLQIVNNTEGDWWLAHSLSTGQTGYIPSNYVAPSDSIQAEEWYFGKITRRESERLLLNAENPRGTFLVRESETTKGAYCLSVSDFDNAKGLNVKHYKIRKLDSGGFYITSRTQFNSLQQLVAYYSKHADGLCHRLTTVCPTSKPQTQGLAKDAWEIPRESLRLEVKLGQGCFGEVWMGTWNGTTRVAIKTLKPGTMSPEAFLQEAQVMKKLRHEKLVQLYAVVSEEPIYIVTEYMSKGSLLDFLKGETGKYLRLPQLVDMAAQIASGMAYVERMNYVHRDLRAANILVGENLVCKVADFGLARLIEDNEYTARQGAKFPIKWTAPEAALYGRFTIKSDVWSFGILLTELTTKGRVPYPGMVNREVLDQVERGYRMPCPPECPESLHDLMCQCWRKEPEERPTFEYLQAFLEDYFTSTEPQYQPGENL
T3 sequence (P07947 whole entry): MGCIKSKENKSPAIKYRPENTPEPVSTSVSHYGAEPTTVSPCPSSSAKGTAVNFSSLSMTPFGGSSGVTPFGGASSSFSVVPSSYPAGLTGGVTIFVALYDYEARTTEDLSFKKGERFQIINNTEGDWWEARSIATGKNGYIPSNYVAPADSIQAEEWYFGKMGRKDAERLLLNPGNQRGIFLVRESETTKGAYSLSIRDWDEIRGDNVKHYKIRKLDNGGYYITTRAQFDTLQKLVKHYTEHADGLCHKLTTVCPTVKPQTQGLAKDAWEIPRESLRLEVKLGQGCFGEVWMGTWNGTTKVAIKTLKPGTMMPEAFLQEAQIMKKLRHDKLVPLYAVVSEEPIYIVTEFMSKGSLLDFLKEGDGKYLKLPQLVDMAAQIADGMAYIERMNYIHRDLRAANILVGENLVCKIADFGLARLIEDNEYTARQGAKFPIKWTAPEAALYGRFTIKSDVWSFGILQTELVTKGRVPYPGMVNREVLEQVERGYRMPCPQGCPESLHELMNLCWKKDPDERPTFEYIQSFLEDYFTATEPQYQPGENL
T1 sequence (P06239 whole entry): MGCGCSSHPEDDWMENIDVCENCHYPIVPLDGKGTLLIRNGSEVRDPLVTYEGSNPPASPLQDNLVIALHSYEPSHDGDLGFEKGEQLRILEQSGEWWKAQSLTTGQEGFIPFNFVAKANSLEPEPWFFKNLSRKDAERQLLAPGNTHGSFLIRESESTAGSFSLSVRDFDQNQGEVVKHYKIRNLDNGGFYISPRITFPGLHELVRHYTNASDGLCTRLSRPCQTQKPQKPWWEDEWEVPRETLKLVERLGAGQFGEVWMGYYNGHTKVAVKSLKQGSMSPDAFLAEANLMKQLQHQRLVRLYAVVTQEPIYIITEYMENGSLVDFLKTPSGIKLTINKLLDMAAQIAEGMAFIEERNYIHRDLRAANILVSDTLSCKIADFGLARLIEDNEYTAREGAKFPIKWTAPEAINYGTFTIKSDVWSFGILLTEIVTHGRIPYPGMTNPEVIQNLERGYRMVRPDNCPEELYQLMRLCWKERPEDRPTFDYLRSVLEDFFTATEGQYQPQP

| SMILES | IC50 (human Lck enzyme) [nM] | IC50 (human Src enzyme) [nM] | IC50 (human Yes1 enzyme) [nM] |
| --- | --- | --- | --- |
| COc1cc2cc(C(=O)c3cnn(-c4cnc(Oc5ccccc5F)cc4C)c3N)[nH]c2cc1NS(=O)(=O)CC(=O)N1CCCC1 [Example 4-10-014, N-[2-[5-amino-1-[6-(2-fluorophenoxy)-4-methylpyridin-3-yl]pyrazole-4-carbonyl]-5-methoxy-1H-indol-6-yl]-2-oxo-2-pyrrolidin-1-ylethanesulfonamide] | 10 | 29 | 0.54 |
| COc1cc2cc(C(=O)c3cnn(-c4cnc(Oc5ccccc5F)cc4C)c3N)[nH]c2cc1NS(=O)(=O)CC(=O)NC(C)C [Example 4-10-015, 2-[[2-[5-amino-1-[6-(2-fluorophenoxy)-4-methylpyridin-3-yl]pyrazole-4-carbonyl]-5-methoxy-1H-indol-6-yl]sulfamoyl]-N-propan-2-ylacetamide] | 7.2 | 58 | 1.1 |
| COc1cc2cc(C(=O)c3cnn(-c4cnc(Oc5c(F)cccc5F)cc4C)c3N)[nH]c2cc1NS(=O)(=O)CC(=O)N1CCCC1 [Example 4-10-017, N-[2-[5-amino-1-[6-(2,6-difluorophenoxy)-4-methylpyridin-3-yl]pyrazole-4-carbonyl]-5-methoxy-1H-indol-6-yl]-2-oxo-2-pyrrolidin-1-ylethanesulfonamide] | 11 | 32 | 0.93 |
| COc1cc2cc(C(=O)c3cnn(-c4cnc(Oc5ccccc5F)cc4C)c3N)[nH]c2cc1NS(=O)(=O)N1CCOCC1 [Example 4-12-001, N-{2-{5-amino-1-[6-(2-fluorophenoxy)-4-methylpyridin-3-yl]pyrazole-4-carbonyl}-5-methoxy-1H-indol-6-yl}morpholine-4-sulfonamide] | 45 | 140 | 2.9 |
| COc1cc2cc(C(=O)c3cnn(-c4cnc(Oc5ccccc5F)cc4C)c3N)[nH]c2cc1NC(=O)N1CCOCC1 [Example 4-12-002, N-[2-[5-amino-1-[6-(2-fluorophenoxy)-4-methylpyridin-3-yl]pyrazole-4-carbonyl]-5-methoxy-1H-indol-6-yl]morpholine-4-carboxamide] | 8 | 40 | 3.2 |
| COc1cc2cc(C(=O)c3cnn(-c4ccc(Oc5ccccc5F)cc4C)c3N)[nH]c2cc1NS(=O)(=O)N1CCOCC1 [Example 4-12-003, N-[2-[5-amino-1-[4-(2-fluorophenoxy)-2-methylphenyl]pyrazole-4-carbonyl]-5-methoxy-1H-indol-6-yl]morpholine-4-sulfonamide] | 14 | 45 | 0.54 |
| COc1cc2cc(C(=O)c3cnn(-c4ccc(Oc5ccccc5F)cc4C)c3N)[nH]c2cc1NS(=O)(=O)CCCF [Example 4-13-002, N-[2-[5-amino-1-[4-(2-fluorophenoxy)-2-methylphenyl]pyrazole-4-carbonyl]-5-methoxy-1H-indol-6-yl]-3-fluoropropane-1-sulfonamide] | 20 | 27 | 2.4 |
| COc1cc2cc(C(=O)c3cnn(-c4ccc(Oc5ccccc5F)cc4C)c3N)[nH]c2cc1N1CCCS1(=O)=O [Example 4-14-002, [5-amino-1-[4-(2-fluorophenoxy)-2-methylphenyl]pyrazol-4-yl]-[6-(1,1-dioxo-1,2-thiazolidin-2-yl)-5-methoxy-1H-indol-2-yl]methanone] | 5.6 | 8.8 | 1.4 |
| Cc1cc2cc(C(=O)c3cnn(-c4cnc(Oc5ccccc5F)cc4C)c3N)[nH]c2cc1N1CCCS1(=O)=O [Example 4-16-001, {5-amino-1-[6-(2-fluorophenoxy)-4-methylpyridin-3-yl]pyrazol-4-yl}-[6-(1,1-dioxo-1,2-thiazolidin-2-yl)-5-methyl-1H-indol-2-yl]methanone] | 4.5 | 16 | 0.62 |
| CC(=O)N1CCC(c2cc3[nH]c(C(=O)c4cnn(-c5ccc(Oc6ccccc6F)cc5C)c4N)cc3cc2OC(F)F)CC1 [Example 4-17-002, 1-[4-[2-[5-amino-1-[4-(2-fluorophenoxy)-2-methylphenyl]pyrazole-4-carbonyl]-5-(difluoromethoxy)-1H-indol-6-yl]piperidin-1-yl]ethanone] | 18 | 43 | 10 |

More lines, in order of falling IC50 (human Lck enzyme), values ahead:

| IC50 (human Lck enzyme) [nM] | IC50 (human Src enzyme) [nM] | IC50 (human Yes1 enzyme) [nM] | SMILES |
| --- | --- | --- | --- |
| 26 | 76 | 2.4 | COc1cc2cc(C(=O)c3cnn(-c4cnc(Oc5ccccc5F)cc4C)c3N)[nH]c2cc1NS(=O)(=O)CCCF [Example 4-13-001, N-{2-{5-amino-1-[6-(2-fluorophenoxy)-4-methylpyridin-3-yl]pyrazole-4-carbonyl}-5-methoxy-1H-indol-6-yl}-3-fluoropropane-1-sulfonamide] |
| 12 | 26 | 4.5 | CC(=O)N1CCC(c2cc3[nH]c(C(=O)c4cnn(-c5cnc(Oc6c(F)cccc6F)cc5C)c4N)cc3cc2OCC(F)F)CC1 [Example 4-17-001, 1-{4-{2-{5-amino-1-{6-(2,6-difluorophenoxy)-4-methylpyridin-3-yl}pyrazole-4-carbonyl}-5-(2,2-difluoroethoxy)-1H-indol-6-yl}piperidin-1-yl}ethanone] |
| 11 | 29 | 1.2 | COc1cc2cc(C(=O)c3cnn(-c4c(C)cc(Oc5ccccc5F)cc4F)c3N)[nH]c2cc1NS(=O)(=O)CC(=O)N1CCOCC1 [Example 4-10-013, N-[2-[5-amino-1-[2-fluoro-4-(2-fluorophenoxy)-6-methylphenyl]pyrazole-4-carbonyl]-5-methoxy-1H-indol-6-yl]-2-morpholin-4-yl-2-oxoethanesulfonamide] |
| 9.9 | 18 | 1.1 | Cc1cc2cc(C(=O)c3cnn(-c4cnc(Oc5ccccc5F)cc4C)c3N)[nH]c2cc1NS(=O)(=O)CC(=O)N1CCOCC1 [Example 4-15-001, N-(2-(5-amino-1-(6-(2-fluorophenoxy)-4-methylpyridin-3-yl)-1H-pyrazole-4-carbonyl)-5-methyl-1H-indol-6-yl)-2-morpholino-2-oxoethanesulfonamide] |
| 5.8 | 17 | 0.59 | COc1cc2cc(C(=O)c3cnn(-c4cnc(Oc5ccccc5F)cc4C)c3N)[nH]c2cc1NS(=O)(=O)CC(=O)N1CCOCC1 [Example 4-10-016, N-[2-[5-amino-1-[6-(2-fluorophenoxy)-4-methylpyridin-3-yl]pyrazole-4-carbonyl]-5-methoxy-1H-indol-6-yl]-2-morpholin-4-yl-2-oxoethanesulfonamide] |
| 5.8 | 21 | 1.2 | COc1cc2cc(C(=O)c3cnn(-c4cnc(Oc5ccccc5F)cc4C)c3N)[nH]c2cc1N1CCCS1(=O)=O [Example 4-14-001, {5-amino-1-[6-(2-fluorophenoxy)-4-methylpyridin-3-yl]pyrazol-4-yl}-[6-(1,1-dioxo-1,2-thiazolidin-2-yl)-5-methoxy-1H-indol-2-yl]methanone] |
| 5.6 | 33 | 1.5 | COc1cc2cc(C(=O)c3cnn(-c4cnc(Oc5ccccc5F)cc4C)c3N)[nH]c2cc1NC(C)=O [Example 4-11-001, N-{2-{5-amino-1-[6-(2-fluorophenoxy)-4-methylpyridin-3-yl]pyrazole-4-carbonyl}-5-methoxy-1H-indol-6-yl}acetamide] |

From patent US10479780B2, “Aminopyrazole derivatives” (Chugai Seiyaku Kabushiki Kaisha, priority 2015, dated 2019)
